Experimental data: patent US10118928B2, “Treatment of H. pylori infections using MTAN inhibitors” (ALBERT EINSTEIN COLLEGE OF MEDICINE, INC., priority 2014, dated 2018)
In brackets after ≈: the same amount, converted by molar mass. Where two headings read alike, the source gives them in different places.

Columns and labels:
[1] = Concentration in mouse gastric mucin after a single oral dose; assay type: in vivo; settings: for concentration at 0.25 h / concentration at 0.5 h / concentration at 1 h / concentration at 2 h / concentration at 4 h / concentration at 8 h / concentration at 12 h / concentration at 24 h: C57/BL6, mouse, gastric mucin, po, 10 mg/kg, mouse; for concentration at 0.25 h: 0.25 h after single dose 10 mg/kg PO; for concentration at 0.5 h: 0.50 h after single dose 10 mg/kg PO; for concentration at 1 h: 1.00 h after single dose 10 mg/kg PO; for concentration at 2 h: 2.00 h after single dose 10 mg/kg PO; for concentration at 4 h: 4.00 h after single dose 10 mg/kg PO; for concentration at 8 h: 8.00 h after single dose 10 mg/kg PO; for concentration at 12 h: 12.0 h after single dose 10 mg/kg PO; for concentration at 24 h: 24.0 h after single dose 10 mg/kg PO
Procedure: (a) Oral Dosing of Mice with 10 mg/kg Hexyl-SerMe-Immucillin A: Female C57/BL6 mice ranging from 5-6 weeks in age and 18-22 grams in weight (Harlan Laboratories) were dosed by oral gavage with of Hexyl-SerMe-Immucillin A (0.4 mL of a 0.5 mg/mL solution in water for injection).
(b) Mucin Sampling: Mice (3 mice/time point) were euthanized via CO2 inhalation at 0.25, 0.5, 1, 2, 4, 8, 12 and 24 h, then the mucin layer was scraped from the longitudinally dissected stomach using a glass slide, collected and weighed.
(c) Preparation of Gastric Mucin Homogenates: Approximately 30 mg of mouse mucin was weighted into a 2 mL homogenizer tube (prefilled with 3.0 mm i.d. zirconium beads) and mixed with 0.2 mL PBS buffer. This was homogenized for 3 min at 4,000 rpm in a Beadbug D1030 (Benchmark Scientific) homogenizer.
(d) Extraction of Gastric Mucin Homogenates: Samples of mucin homogenate (50 μL) and of internal standard (see below) in water (10 μL) were treated with trichloroacetic acid (30% w/v, 30 μL), diluted with water (160 μL), vortexed for 10 sec and sonicated for 10 min, then centrifuged at 14,500 rpm for 5 min. A sample of the supernatant (160 μL) was transferred into autosampler vials. The internal standard was Butylthio-DADMe-Immucillin-H at 5.0 and 20.0 μg/mL.
(f) HPLC-MS-MS Analysis: Aliquots of supernatant (10 μL) were injected for analysis on Surveyor HPLC system (Thermo) fitted with an ACE 3 C18 Column (50×3 mm, 3 μm particles), with gradient elution at 30° C. with 400 μL/min mobile phase comprised of mixtures of 0.1% trifluoroacetic acid in water (A) and methanol (B) as follows: 0-5 min, A:B 9:1; 5-6.1 min, A:B 1:9; 6.1-10 min A:B 9:1. Hexyl-SerMe-Immucillin A eluted at 4.41±0.003 min. Detection was ESI MS/MS using a LCQ Deca (Thermo) in selected-reaction monitoring (SRM) positive mode using the MS/MS event m/z 292.2→147.2 and ion spray voltage of 4.5 kV.

[2] = system: H. pylori UNT189-1 (ATCC43504); assay: MIC by agar dilution (MHIIb agar), strain UNT189-1; assay type: cell-based; settings: Helicobacter pylori, 72 h
Procedure: (§1) (a) Sample Plate Preparation: Aliquots of a 2-fold serial dilution of Hexyl-SerMe-Immucillin A (from 62.5 μg/mL-6.25 μg/mL in DMSO, 0.02 mL) were mixed into separate 2 mL molten MHIIb agar, and poured into separate wells on each well of a 12-well plate, allowed to set for 20-30 minutes and dry in a biosafety cabinet for 10 minutes prior to Inoculation.
(§2) (b) Inoculation: Frozen inoculate stock of H. pylori strains UNT020-1 (Sydney Strain SS1) and UNT189-1 (ATCC43504) was separately streaked onto Columbia+5% sheep blood agar and microaerophilically incubated for 72 h at 37° C. The plate cultures of the H. pylori strains were then harvested in 0.9% sterile saline solution and the OD at 530 nm of the suspension was determined. The OD of each suspension was adjusted to 1.5-2.0 by dilution into 0.9% sterile saline. The UNT020-1 suspension was further diluted 2:5, but the UNT189-1 suspension was not further diluted, and these were used to inoculate the agar plates. Samples of the suspensions (3 μL) were spotted onto the MHIIb agar wells in the 12-well plate. The CFU/mL of each inoculum was confirmed by generating a 10-fold serial dilution of each inoculum in 0.9% sterile saline and spotting 8 μL of each dilution onto Columbia+5% sheep blood agar plates. After allowing the spots to dry for 10 min, the plates were placed into a microaerophilic chamber and incubated at 37° C. for 72 h.

[3] = system: H. pylori UNT020-1 (Sydney Strain SS1); assay: MIC by agar dilution (MHIIb agar), strain UNT020-1; assay type: cell-based; settings: Helicobacter pylori, 72 h
Procedure: as §1, §2

[4] = female, read-out: concentration in gastric mucin, Animal-1
[5] = female, read-out: concentration in gastric mucin, Animal-2
[6] = female, read-out: concentration in gastric mucin, Animal-3
[7] = female, read-out: concentration in gastric mucin, Mean

Work on `CCCCCC[C@@H](CO)NCc1c[nH]c2c(N)ncnc12` [Hexyl-SerMe-Immucillin A, (2S)-2-[({4-Amino-5H-pyrrolo[3,2-d]pyrimidin-7-yl}methyl)amino]octan-1-ol] yielded a concentration at 0.25 h [1, 4] of 60400 ng/g, a concentration at 0.25 h [1, 5] of 64400 ng/g and a concentration at 0.25 h [1, 6] of 45900 ng/g. The concentration at 0.25 h [1, 7] was 56900 ng/g, the concentration at 0.5 h [1, 4] was 46200 ng/g and the concentration at 0.5 h [1, 5] was 90200 ng/g. It also gave a concentration at 0.5 h [1, 6] of 60200 ng/g, a concentration at 0.5 h [1, 7] of 65500 ng/g and a concentration at 1 h [1, 4] of 20400 ng/g. The concentration at 1 h [1, 5] was 12200 ng/g, the concentration at 1 h [1, 6] was 12000 ng/g and the concentration at 1 h [1, 7] was 14900 ng/g. It also gave a concentration at 2 h [1, 4] of 2020 ng/g, a concentration at 2 h [1, 5] of 1080 ng/g and a concentration at 2 h [1, 6] of 16200 ng/g. The concentration at 2 h [1, 7] was 6440 ng/g, the concentration at 4 h [1, 4] was 670 ng/g and the concentration at 4 h [1, 5] was 3740 ng/g. The concentration at 4 h [1, 6] was 910 ng/g, the concentration at 4 h [1, 7] was 1770 ng/g and the concentration at 8 h [1, 4] was 650 ng/g. The concentration at 8 h [1, 5] was 1620 ng/g, the concentration at 8 h [1, 6] was 530 ng/g and the concentration at 8 h [1, 7] was 930 ng/g. For the same molecule, the concentration at 12 h [1, 4] was 960 ng/g, the concentration at 12 h [1, 5] was 950 ng/g and the concentration at 12 h [1, 6] was 330 ng/g. For the same molecule, the concentration at 12 h [1, 7] was 740 ng/g, the concentration at 24 h [1, 4] was 540 ng/g and the concentration at 24 h [1, 5] was 390 ng/g. It also gave a concentration at 24 h [1, 6] of 300 ng/g, a concentration at 24 h [1, 7] of 410 ng/g and a Cmax ([1]; female, C57/BL6, mouse gastric mucin, 10 mg/kg oral gavage) of 65500 ng/g. The half-life ([1]; female, C57/BL6, mouse gastric mucin, 10 mg/kg oral gavage, read-out: terminal half-life (converted)) was 2.72 h, the “total exposure [AUC(0-inf)]” value ([1]; mouse gastric mucin, 10 mg/kg oral gavage) was 78.6 µg·h/g and the MIC [2] was 1.9 ng/mL (≈ 6.52 nM). The MIC [3] was 1.9 ng/mL (≈ 6.52 nM).
